In patent publication US9556201B2, “Bicyclic pyridines and analogs as sirtuin modulators” (GLAXOSMITHKLINE LLC, priority 2009, dated 2017):

Assays:
TNF [1] = experiment: TNF IC50 (column of Table 1; method not in the text shown); assay type: cell-based
SIRT1 = target: T1, SIRT1 (Homo sapiens, UniProt Q96EB6); experiment: Mass spectrometry based assay to identify modulators of SIRT1 activity (deacetylation of p53-based acetylated peptide substrate); assay type: biochemical; details: for Emax: 25 min, read-out: % FOLD ACT. (percent maximum fold activation); for Emax / EC1.5: SIRT1 activation
T1 sequence (Q96EB6 1-747): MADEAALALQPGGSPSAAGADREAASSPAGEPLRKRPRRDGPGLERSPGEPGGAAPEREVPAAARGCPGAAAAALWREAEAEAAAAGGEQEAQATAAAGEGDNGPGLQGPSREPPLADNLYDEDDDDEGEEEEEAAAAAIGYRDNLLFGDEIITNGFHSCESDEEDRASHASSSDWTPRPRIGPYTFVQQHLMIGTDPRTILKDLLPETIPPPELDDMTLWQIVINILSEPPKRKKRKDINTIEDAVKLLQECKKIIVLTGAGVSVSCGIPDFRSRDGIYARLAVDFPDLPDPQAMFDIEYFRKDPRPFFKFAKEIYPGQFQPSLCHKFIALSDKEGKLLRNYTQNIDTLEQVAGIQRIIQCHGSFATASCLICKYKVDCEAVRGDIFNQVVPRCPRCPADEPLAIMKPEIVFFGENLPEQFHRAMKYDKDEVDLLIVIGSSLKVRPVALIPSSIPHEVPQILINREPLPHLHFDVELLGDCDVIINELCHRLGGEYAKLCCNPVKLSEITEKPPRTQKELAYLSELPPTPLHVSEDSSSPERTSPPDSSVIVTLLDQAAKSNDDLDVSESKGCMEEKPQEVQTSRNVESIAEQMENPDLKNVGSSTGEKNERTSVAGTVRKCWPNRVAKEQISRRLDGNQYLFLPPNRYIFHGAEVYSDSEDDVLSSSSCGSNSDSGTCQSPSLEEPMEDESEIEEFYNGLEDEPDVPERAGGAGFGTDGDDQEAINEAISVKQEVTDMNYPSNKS
Summary of the method: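 His-tagged human SIRT1 (10 nM, E. coli) incubated 25 min at 25 °C with […] p53-derived acetylated 5TMR peptide and 120 μM βNAD+ in pH 8 Tris-acetate buffer, then formic acid-stopped. Mass spectrometry quantifies acetylated vs deacetylated peptide; nicotinamide and DMSO controls.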

TNF [2] = experiment: TNF IC50 (column of Table 1; method not shown); assay type: cell-based

Compound | IC50 (TNF [1]) | EC1.5 (concentration giving 1.5-fold activation) (SIRT1) | Emax (SIRT1) | IC50 (TNF [2]) | EC1.5 (SIRT1)
O=C(Nc1cncc(OCC(O)CO)n1)N1CCc2ccc(-c3cccc(C(F)(F)F)c3)nc21 (stereo not drawn) [Compound 868] | < 20 µM | < 1000 nM | > 200% | – | –
CC1(C)CCN(C(=O)Nc2cccc(OC[C@@H](O)CO)n2)c2nc(-c3cccc(C(F)(F)F)c3)ccc21 [Compound 840] | < 20 µM | < 1000 nM | > 200% | – | –
COc1cc(NC(=O)N2CCCOc3ccc(-c4cccc(Cl)c4)nc32)ccn1 [Compound 882] | ≥ 20 µM | < 1000 nM | > 200% | – | –
Cc1cncc(NC(=O)N2CCOc3cnc(-c4cccc(C(F)(F)F)c4)nc32)c1 [Compound 710] | ≥ 20 µM | < 1000 nM | > 200% | – | –
O=C(Nc1cccc(N2CC3(CCO3)C2)n1)N1CCOc2ccc(-c3cccc(C(F)(F)F)c3)nc21 [Compound 823, N-(6-(1-oxa-6-azaspiro[3.3]heptan-6-yl)pyridin-2-yl)-6-(3-(trifluoromethyl)phenyl)-2H-pyrido[3,2-b][1,4]oxazine-4(3H)-carboxamide] | ≥ 20 µM | < 1000 nM | > 200% | – | –
O=C(Nc1cccnc1)N1CCOc2ccc(-c3cccc(C(F)(F)F)c3)nc21 [Compound 887] | ≥ 20 µM | < 1000 nM | > 200% | – | –
O=C(Nc1ccncc1)N1CCc2ccc(-c3cccc(C(F)(F)F)c3)nc21 [Compound 849] | < 20 µM | < 1000 nM | > 200% | – | –
CN(C)c1cccc(-c2ccc3c(n2)N(C(=O)Nc2cccc(OC[C@H](O)CO)n2)CCC3)c1 [Compound 699] | < 20 µM | < 1000 nM | > 200% | – | –
Cc1cc(NC(=O)N2CCOc3cnc(-c4cccc(C(F)(F)F)c4)nc32)cc(C)n1 [Compound 711] | ≥ 20 µM | < 1000 nM | > 200% | – | –
CC1(C)CCN(C(=O)Nc2ccncn2)c2nc(-c3cccc(C(F)(F)F)c3)ccc21 [Compound 838] | ≥ 20 µM | < 1000 nM | > 200% | – | –
CCN1CCCN(C(=O)Nc2cc(C)nc(C)c2)c2nc(-c3cccc(Cl)c3)ccc21 [Compound 793] | < 20 µM | < 1000 nM | > 200% | – | –
COc1cc(NC(=O)N2CCCOc3ccc(-c4cccc(Cl)c4)nc32)nc(OC)n1 [Compound 873] | ≥ 20 µM | < 1000 nM | > 200% | – | –
O=C(Nc1cncc(OCC(O)CO)n1)N1CCC(F)(F)c2ccc(-c3cccc(C(F)(F)F)c3)nc21 (stereo not drawn) [Compound 813] | < 20 µM | < 1000 nM | > 200% | – | –
O=C(Nc1cc(OCC(O)CO)ccn1)N1CCC(F)(F)c2ccc(-c3cccc(C(F)(F)F)c3)nc21 (stereo not drawn) [Compound 860] | < 20 µM | < 1000 nM | > 200% | – | –
Cc1csc(NC(=O)N2CCc3ccc(-c4cccc(C(F)(F)F)c4)nc32)n1 [Compound 851] | ≥ 20 µM | < 1000 nM | > 200% | – | –
O=C(Nc1cccc(OC[C@@H](O)CO)n1)N1CCC(F)(F)c2ccc(-c3cccc(C(F)(F)F)c3)nc21 [Compound 745] | < 20 µM | < 1000 nM | > 200% | – | –
N#Cc1cccc(-c2ccc3c(n2)N(C(=O)Nc2cccc(OC[C@H](O)CO)n2)CCC3)c1 [Compound 700] | < 20 µM | < 1000 nM | > 200% | – | –
Cc1cc(C)nc(NC(=O)N2CCCc3ccc(-c4cccc(F)c4)nc32)c1 [Compound 664] | – | – | > 200% | ≥ 20 µM | A (EC1.5<1.0 μM)
Cc1csc(NC(=O)N2CCCOc3ccc(-c4cccc(C(F)(F)F)c4)nc32)n1 [Compound 578] | – | – | > 200% | ≥ 20 µM | A (EC1.5<1.0 μM)
Cc1cncc(NC(=O)N2CC(C)(C)Oc3ccc(-c4cccc(N5CCCC5)c4)nc32)c1 [Compound 603] | – | – | > 200% | ≥ 20 µM | A (EC1.5<1.0 μM)
Cc1csc(NC(=O)N2CCCOc3ccc(-c4cccc(Cl)c4)nc32)n1 [Compound 607] | – | – | > 200% | ≥ 20 µM | A (EC1.5<1.0 μM)
Cc1cc(NC(=O)N2CCCOc3ccc(-c4cccc(N5CCCC5)c4)nc32)ccn1 [Compound 614] | – | – | > 200% | ≥ 20 µM | A (EC1.5<1.0 μM)
Cc1cc(NC(=O)N2CC(C)(C)Oc3ccc(-c4cccc(N5CCCC5)c4)nc32)cc(C)n1 [Compound 605] | – | – | > 200% | ≥ 20 µM | A (EC1.5<1.0 μM)
O=C(Nc1ccncc1)N1CCOc2ccc(-c3cccc(N4CCOCC4)c3)nc21 [Compound 557] | – | – | > 200% | ≥ 20 µM | A (EC1.5<1.0 μM)
Cc1cc(-c2cccc(C(F)(F)F)c2)nc2c1OCCN2C(=O)Nc1cccc(OCC(O)CO)n1 (stereo not drawn) [Compound 682] | – | – | > 200% | < 20 µM | A (EC1.5<1.0 μM)
O=C(Nc1ccnc(N2CCC2)c1)N1CCOc2ccc(-c3cccc(F)c3)nc21 [Compound 519] | – | – | > 200% | < 20 µM | A (EC1.5<1.0 μM)
Cc1cc(C)nc(NC(=O)N2CCCc3ccc(-c4cccc(Cl)c4)nc32)c1 [Compound 654] | – | – | > 200% | ≥ 20 µM | A (EC1.5<1.0 μM)
O=C(Nc1ccnc(N2CCC2)c1)N1CCCc2ccc(-c3cccc(C(F)(F)F)c3)nc21 [Compound 589] | – | – | > 200% | < 20 µM | A (EC1.5<1.0 μM)
Cc1cncc(NC(=O)N2CCOc3c(C)cc(-c4cccc(C(F)(F)F)c4)nc32)c1 [Compound 670] | – | – | > 200% | ≥ 20 µM | A (EC1.5<1.0 μM)

Next, values leading:

IC50 (TNF [1]) | EC1.5 (concentration giving 1.5-fold activation) (SIRT1) | Emax (SIRT1) | IC50 (TNF [2]) | EC1.5 (SIRT1) | Compound
≥ 20 µM | < 1000 nM | > 200% | – | – | Cc1cc(NC(=O)N2CCCC(=O)c3ccc(-c4cccc(Cl)c4)nc32)ccn1 [Compound 750]
< 20 µM | < 1000 nM | ≤ 200% | – | – | CC1CCN(C(=O)Nc2ccc(F)cn2)c2nc(-c3cccc(C(F)(F)F)c3)ccc21 (stereo not drawn) [Compound 800]
≥ 20 µM | < 1000 nM | > 200% | – | – | COc1nccc(NC(=O)N2CCCC(=O)c3ccc(-c4cccc(C(F)(F)F)c4)nc32)n1 [Compound 830]
≥ 20 µM | < 1000 nM | ≤ 200% | – | – | O=C(Nc1cccc(OCC(O)CO)n1)N1CCOc2cnc(-c3cccc(C(F)(F)F)c3)nc21 (stereo not drawn) [Compound 717]
< 20 µM | < 1000 nM | > 200% | – | – | O=C(Nc1ccncc1F)N1CCc2ccc(-c3cccc(C(F)(F)F)c3)nc21 [Compound 870]
< 20 µM | < 1000 nM | > 200% | – | – | Cc1cncc(NC(=O)N2CC(C)(C)Oc3ccc(-c4cccc(N5CC[C@@H](F)C5)c4)nc32)c1 [Compound 701, (R)-6-(3-(3-fluoropyrrolidin-1-yl)phenyl)-2,2-dimethyl-N-(5-methylpyridin-3-yl)-2H-pyrido[3,2-b][1,4]oxazine-4(3H)-carboxamide]
< 20 µM | < 1000 nM | > 200% | – | – | CC1(C)CCN(C(=O)Nc2cncc(OCC(O)CO)n2)c2nc(-c3cccc(C(F)(F)F)c3)ccc21 (stereo not drawn) [Compound 848]
< 20 µM | < 1000 nM | > 200% | – | – | O=C(Nc1cnc(OC[C@H](O)CO)cn1)N1CCCOc2ccc(-c3cccc(Cl)c3)nc21 [Compound 878]
– | – | > 200% | < 20 µM | A (EC1.5<1.0 μM) | O=C(Nc1ccncc1)N1CCOc2ccc(-c3cccc(N4CCCC4)c3)nc21 [Compound 559]
– | – | > 200% | ≥ 20 µM | A (EC1.5<1.0 μM) | Cc1cc(C)nc(NC(=O)N2CCOc3ccc(-c4cccc(C(F)(F)F)c4)nc32)c1 [Compound 511]
– | – | > 200% | < 20 µM | A (EC1.5<1.0 μM) | Cc1cc(NC(=O)N2CCOc3c(C)cc(-c4cccc(C(F)(F)F)c4)nc32)cc(C)n1 [Compound 671]
– | – | > 200% | < 20 µM | A (EC1.5<1.0 μM) | Cc1cc(-c2cccc(Cl)c2)nc2c1OCCN2C(=O)Nc1cccc(OCC(O)CO)n1 (stereo not drawn) [Compound 691]
– | – | > 200% | < 20 µM | A (EC1.5<1.0 μM) | O=C(Nc1ccnc(N2CCCC2)c1)N1CCCOc2ccc(-c3cccc(Cl)c3)nc21 [Compound 609]
